Reference: patent publication US6570010B2, “Inclusion compounds of vanillyl alcohol derivative in cyclodextrin and compositions containing the same” (Takasago International Corporation, priority 2000, dated 2003)

Assay: Solubility in water of 20° C.
Format: physicochemical
Settings: wt. %
Text: In this table, vanillyl-n-butyl ether will be abbreviated as VBE.

Solubility of VBE in terms of concentration: <0.002%
Structure (SMILES): CCCCOCc1ccc(O)c(OC)c1 [VBE, vanillyl-n-butyl ether]
